Assay results published in ChEMBL document CHEMBL1137207, “Solution structure of amyloid beta-peptide (25-35) in different media” (J Med Chem, 2004).
Several values for one entry are separate records, joined by “and”; a condition that tells them apart may be missing. Equal entries are not always repeated. Where a SMILES comes first, the peptide text is derived from it.

Experiment: Retention time of the compound
Format: ADME

Structure (SMILES): CC[C@H](C)[C@H](NC(=O)[C@H](C)NC(=O)CNC(=O)[C@H](CCCCN)NC(=O)[C@H](CC(N)=O)NC(=O)[C@H](CO)NC(=O)CN)C(=O)N[C@H](C(=O)NCC(=O)N[C@@H](CC(C)C)C(=O)N[C@@H](CCSC)C(=O)O)[C@@H](C)CC (H-GSNKGAIIGLM-OH)
- tR: 13.37 min and 10.93 min
